Test results: patent US8057806B2 (priority 2000, dated 2011)
Entries after “also recorded” stand apart in the source; their conditions may differ.

System: M2 mutant viruses
Format: cell-based, influenza A virus

In the case of `NC12CC3CC(CC(C3)C1)C2` [amantadine], the effect on replication is reported as “either not affected or inhibited only slightly; also recorded: Substantial inhibition”.
